For the data set the following is noted: 101.33 kPa, Liquid; for speed of sound: Sing-around technique in a fixed-path interferometer; for mass density: Vibrating tube method.

Numbers after ± are expanded uncertainties.

As to `CCn1cc[n+](C)c1.F[B-](F)(F)F` [1-ethyl-3-methylimidazolium tetrafluoroborate], the speed of sound (as a rule, how fast a sound wave travels through the sample) by setting is: (293.15 K) 1631 ± 2.4 m/s; (298.15 K) 1619.4 ± 2.4 m/s; (303.15 K) 1607.6 ± 2.4 m/s; (308.15 K) 1596.3 ± 2.4 m/s. The mass density (usually the mass of a sample divided by its volume) (293.15 K) came to 1283.89 ± 1.5 kg/m3, the mass density (298.15 K) amounted to 1279.91 ± 1.5 kg/m3, the mass density (303.15 K) is recorded as 1276.26 ± 1.5 kg/m3 and the mass density (308.15 K) is given as 1272.07 ± 1.4 kg/m3.
As to `CC(C)=O` [acetone], the speed of sound runs as follows: (293.15 K) 1186 ± 1.2 m/s; (298.15 K) 1163.8 ± 1.2 m/s; (303.15 K) 1141.4 ± 1.2 m/s; (308.15 K) 1119.1 ± 1.2 m/s. Further, the mass density was determined as 789.987 ± 0.15 kg/m3 (293.15 K), 784.405 ± 0.15 kg/m3 (298.15 K), 778.871 ± 0.15 kg/m3 (303.15 K) and 773.066 ± 0.15 kg/m3 (308.15 K).
Consider `C[S+](C)[O-]` [dimethyl sulfoxide], for which the speed of sound came out at 1503.2 ± 1.2 m/s (293.15 K), 1486.3 ± 1.2 m/s (298.15 K), 1469.2 ± 1.2 m/s (303.15 K) and 1452.7 ± 1.2 m/s (308.15 K). Further, the mass density (293.15 K) came to 1100.43 ± 0.12 kg/m3, the mass density (298.15 K) is listed as 1095.42 ± 0.12 kg/m3, the mass density (303.15 K) is reported as 1090.41 ± 0.12 kg/m3 and the mass density (308.15 K) was 1085.39 ± 0.12 kg/m3.

The values above are taken from the NIST ThermoML archive (doi:10.1016/j.jct.2013.01.010).
